In patent EP4643856A1, “CARBAZOLE DERIVATIVES USED AS NEUROPROTECTANTS AND IN THE TREATMENT OF DISORDERS WITH REDUCED NAD METABOLISM” (Centre National de la Recherche Scientifique, priority 2024, dated 2025):
Entries after “also recorded” stand apart in the source; their conditions may differ.

Experiments:
HeLa cells [1] = experiment: FK866-induced cytotoxicity, viability assay (prestoblue assay); format: cell-based; settings: 3.5 nM FK866 in the presence of 6 µM compound, 72 hours
Description: (§1) This clearly indicates an activation of the pathways leading to NADH production. • Figure 3 represents the effect of compounds I-a, I-f, I-m, I-n, I-q and the comparative example on the cytotoxicity mediated by NAMPT inhibitor FK866. HeLa cells were seeded in microplates and incubated with 3.5 nM FK866 without (black) or in the presence of 6 µM of I-a and different analogues (grey), as indicated, for 72 hours. A viability assay (prestoblue assay) was then conducted. […] Behavioral assessments were performed on 5-week-old male Sprague-Dawley rats before (basal values) and at days 4, 7, 11 and 14 after the beginning of the drug injections (Compound I-a 50 mg/kg, paclitaxel (PTX) 4 mg/kg, Compound I-a 50 mg/kg + PTX 4 mg/kg). Control animals (Vehicle) received vehicle injections. The results are presented by mean ± standard deviation (n = 6 per group). Tactile nociceptive thresholds were assessed using an electronic von Frey test (J. Ferrier, F. Marchand, D. Balayssac, Assessment of mechanical allodynia in rats using the electronic von frey test, BIO-Protoc., 6 (2016), 10.21769/BioProtoc.1933). Rats were placed individually in plastic compartments on an elevated wire floor and left for habituation for 15 min before each experiment. […] The maximum force applied (expressed in grams) to induce paw withdrawal was recorded automatically.
The compound FK866 is known to be a potent selective inhibitor of the NAMPT enzyme. Administration of FK866 in cultured cells results in depletion of intracellular NAD levels and subsequent cell death. The effect of compound I-a and other compounds of the series on FK866-induced cytotoxicity in HeLa cells was assayed.
HeLa cells were seeded in microplates and incubated with 3.5 nM FK866 without (black) or in the presence of 6 µM of I-a and different analogues (grey), as indicated, for 72 hours. A viability assay (prestoblue assay) was then conducted.

[2] = system: rat model of paclitaxel-induced neuropathy; experiment: Rat model of paclitaxel-induced neuropathy, electronic von Frey test; format: in vivo; settings: days 4, 7, 11 and 14
Description: as §1

HeLa cells [3] = experiment: Kinetics of NADH autofluorescence (endogenous NADH production) by confocal microscopy; format: cell-based; settings: I-a (5 µM) or I-s (0.5 µM), 25-minute analysis, in comparison with controls
NAMPT = NAMPT (Homo sapiens, UniProt P43490); experiment: NAMPT activation in vitro, biochemical assay
NAMPT, sequence (P43490 whole entry, species assumed): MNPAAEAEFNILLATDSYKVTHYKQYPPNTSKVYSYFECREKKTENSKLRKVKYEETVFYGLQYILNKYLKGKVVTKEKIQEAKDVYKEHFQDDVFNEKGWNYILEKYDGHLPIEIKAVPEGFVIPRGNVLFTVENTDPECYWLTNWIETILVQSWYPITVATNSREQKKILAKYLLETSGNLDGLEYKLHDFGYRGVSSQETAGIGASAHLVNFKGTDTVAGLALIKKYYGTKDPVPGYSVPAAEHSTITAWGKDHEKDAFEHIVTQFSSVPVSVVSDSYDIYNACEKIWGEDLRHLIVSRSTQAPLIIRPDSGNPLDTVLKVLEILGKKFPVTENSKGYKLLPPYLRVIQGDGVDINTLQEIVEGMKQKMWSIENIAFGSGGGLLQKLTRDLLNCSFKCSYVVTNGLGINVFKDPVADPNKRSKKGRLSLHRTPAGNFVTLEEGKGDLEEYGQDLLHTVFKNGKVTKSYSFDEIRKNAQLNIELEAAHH

COc1cccc(NCC(F)Cn2c3ccc(Cl)cc3c3c(C)c(-n4cccc4)cc(C)c32)c1 (centres unmarked) [Comparative example, N-[3-(6-chloro-1,4-dimethyl-3-pyrrol-1-yl-carbazol-9-yl)-2-fluoro-propyl]-3-methoxy-aniline, reference compound]
effect on FK866-induced cell death (HeLa cells [1]): does not reduce FK866-induced cell death

Cc1cc(-n2cccc2)c(C)c2c1[nH]c1ccc(Cl)cc12 [I-a, 6-chloro-1,4-dimethyl-3-pyrrol-1-yl-9H-carbazole]
effect on FK866-induced cell death (HeLa cells [1]): significantly reduced cell death
tactile sensitivity (tactile nociceptive thresholds, von Frey) ([2]; Compound I-a 50 mg/kg + PTX 4 mg/kg, force in grams, n = 6 per group): prevents the hypersensitivity induced by PTX
NADH production (NADH autofluorescence) (HeLa cells [3]): dose-dependent increase in NADH production
NAMPT activation (NAMPT): activates NAMPT in vitro

Cc1cc(-n2cccc2)c(C)c2c1[nH]c1ccc(Br)cc12 [I-f]
effect on FK866-induced cell death (HeLa cells [1]): can relieve the cytotoxicity of the NAMPT inhibitor FK866; also recorded: reduced cell death

Cc1cc(-n2cccc2)c(C)c2c1[nH]c1ccc(O)cc12 [I-m]
effect on FK866-induced cell death (HeLa cells [1]): no detectable protective effect

CCOC(=O)Oc1ccc2[nH]c3c(C)cc(-n4cccc4)c(C)c3c2c1 [I-n]
effect on FK866-induced cell death (HeLa cells [1]): significantly reduced cell death

CCc1cccc2c1[nH]c1c(C)cc(-n3cccc3)c(C)c12 [I-q]
effect on FK866-induced cell death (HeLa cells [1]): significantly reduced cell death

Cc1cc(-n2ccc(CO)c2)c(C)c2c1[nH]c1ccc(Cl)cc12 [I-s]
NADH production (NADH autofluorescence) (HeLa cells [3]): dose-dependent increase in NADH production

CC(=O)O[C@H]1C(=O)[C@@]2(C)[C@H]([C@H](OC(=O)c3ccccc3)[C@]3(O)C[C@H](OC(=O)[C@H](O)[C@@H](NC(=O)c4ccccc4)c4ccccc4)C(C)=C1C3(C)C)[C@]1(OC(C)=O)CO[C@@H]1C[C@@H]2O [PTX, paclitaxel, reference compound]
tactile sensitivity (tactile nociceptive thresholds, von Frey) ([2]; PTX 4 mg/kg alone, compared with basal value at day 0): progressively induce a tactile hypersensitivity; also recorded: developed progressively tactile hypersensitivity
